Measured values from paper PMC7146544, “Dual Plasmepsin-Targeting Antimalarial Agents Disrupt Multiple Stages of the Malaria Parasite Life Cycle” (Cell Host & Microbe, 2020).
Read-outs that look alike come from different tables or passages of the source.

Legend:
[1] = Bioanalytical determination of WM382 in mouse blood by LC-MS/MS; format: in vivo; conditions: SCID (huSCID), whole blood, po, huSCID mice
Experimental: Serial samples of peripheral blood (25 μL) were taken from the mice of the efficacy experiment in the murine P. falciparum SCID model by tail puncture at 1, 2, 4, 6 and 24 h post first and last drug administration. The samples were immediately lysed by mixing with 25 μL of water, immediately frozen on dry ice and stored at −80°C until bioanalysis (carried out at SBQ, Reinach, Switzerland). The compounds were extracted from 10 μL of each lysate with 50 μL acetonitrile containing the internal standards (reserpine at 100 ng/mL). After a centrifugation step at 50000 g for 10 min, an aliquot of 50 μL of the supernatant was transferred to an autosampler vial and analyzed. The compounds were quantified by LC-MS/MS in the selected reaction monitoring mode using HESI ionization in positive ion mode, using a TSQ Quantum Access Mass spectrometer (Thermo Fisher Scientific, San Jose, CA, USA). The compound concentration versus time data was determined.

[2] = test system: P. falciparum; assay: P. falciparum humanized NOD-scid IL2R_null mouse model
Experimental: Compounds were tested in the murine P. falciparum SCID model ([Angulo-Barturen et al., 2008]). […] The mice were intravenously infected with 2 × 10^7 P. falciparum Pf3D7-infected erythrocytes (day 0) ([Angulo-Barturen et al., 2008]). On day 3 after infection, mice were randomly allocated to treatments that were administered once a day for 4 consecutive days (n = 3 mice) by oral gavage at 10 mL/kg. Parasitemia was measured by microscopy. Chimerism was monitored by flow cytometry using anti-murine erythrocyte TER119 monoclonal antibody (PharMingen, San Diego, CA) and SYTO-16 and then analyzed by flow cytometry in serial 2 μL blood samples taken every 24 h until assay completion.

[3] = test system: P. berghei sporozoites; assay: In vivo analysis of P. berghei liver parasite growth and transition to blood infection; parameters: species or system Plasmodium berghei
Experimental: Female BALB/c mice were infected with PbmCherryLuci sporozoites by either intravenous injection or infectious mosquito bite challenge. Mice (infected by either route) received either no treatment or were treated orally with WM382 (prepared as previously described) at doses and h post infection (hpi) as indicated. For i.v. injections, freshly isolated salivary gland sporozoites were filtered through glass wool to remove debris before 40,000 sporozoites were resuspended in 200 μL Schneider’s Insect Media immediately prior to injection. For infection by mosquito bite, the percent of mosquitoes that contained oocysts was used to place 5 infected mosquitoes in individual feeding cups (for example, if 83% of mosquitoes in the batch had oocysts then 6 mosquitoes were placed in each cup). Mice were anesthetised using ketamine/xylazine and placed on individual feeding cups to begin the infection. Mosquitoes were allowed to feed on the mice for 15 min and mice were rotated between feeding cups every min to promote probing and ensure that all mice were equally exposed to infectious mosquito bites. From day 3 – 30 post infection mice were monitored daily for the presence of parasites in Giemsa stained thin blood smears and considered to be protected from blood infection if they remained negative through this period.
In addition to monitoring thin blood smears, luciferase activity was used to measure liver infection (52 hpi), liver egress (55 hpi) and transition to initial blood infection (65 hpi) in mice infected intravenously. Briefly, mice were injected i.p. with 200 μL XenoLight D-Luciferin (PerkinElmer) and returned to their cage for 5 min prior to anesthesia by isofluorane inhalation for a further 5 min. Between 10 – 15 min post injection of D-luciferin, mice were maintained under isofluorane anesthesia and bioluminescent signal collected using an IVIS Lumina S5 system (PerkinElmer) with a medium binning factor and 3 min integration time. Bioluminescence emanating from a region of interest (ROI) covering the liver region (52 and 55 hpi) or whole animal (65 hpi) was quantified using Living Image software version 4.7.2 (PerkinElmer) and expressed as the total flux in photons/second (p/s). Background flux was measured using an identically sized ROI placed over the lower pelvic region below the liver (52 and 55 hpi) or uninfected mice (65 hpi) and is expressed as the limit of detection (LOD). The parasitemia of the first round of erythrocytic infection was measured at 65 hpi using a LSRFortessa X20 (Becton Dickinson) flow cytometer. Briefly, a drop of whole blood was collected from the tail in 200 μL human tonicity (HT) PBS and immediately analyzed. To identify infected blood cells, mCherry signal intensity was plotted against GFP signal intensity as a decoy reporter. The number of mCherry^+ / GFP^— events are reported per 1 × 10^6 whole blood cells with blood from uninfected mice used as a negative control.

[4] = test system: P. berghei; assay: Dose ranging test for P. berghei infection in mice; format: in vivo, Plasmodium berghei
Experimental: Control mice were treated orally with chloroquine for 4 days under q.d. dosing regimen at 10 mpk/day. From day 2 to 30 post infection, parasitemia was measured daily by flow cytometry and microscopy, as described above. Survival of animals to day 30 post infection, with no detectable parasites in the peripheral blood, were considered to be cured (i.e., 100% efficacy).

[5] = i.v. sporozoites, 2 × 20 mpk oral
[6] = i.v. sporozoites, oral 20 mpk or 100 mpk b.i.d. at 36 and 48 hpi
[7] = mosquito bite infection, 20 mpk at 36 hpi
[8] = mosquito bite infection, 50 mpk at 36 hpi

Which results are given for `CCC1(CC)CC(=O)N([C@@H]2CCOc3ccc(C(=O)N[C@H]4CC(C)(C)Oc5ccccc54)cc32)C(=N)N1` [WM382]?
AUC ([1]; 1 mg/kg, oral daily dose 1 mg/kg, read-out: AUC dose 1): 0.06 ± 0.03 µM·h; AUC ([1]; 1 mg/kg, oral daily dose 1 mg/kg, read-out: AUC dose 4): 0.1 ± 0.04 µM·h; AUC ([1]; 3 mg/kg, oral daily dose 3 mg/kg, read-out: AUC dose 1): 0.5 ± 0.18 µM·h; AUC ([1]; 3 mg/kg, oral daily dose 3 mg/kg, read-out: AUC dose 4): 0.37 ± 0.21 µM·h; AUC ([1]; 10 mg/kg, oral daily dose 10 mg/kg, read-out: AUC dose 1): 2.61 ± 1 µM·h; AUC ([1]; 10 mg/kg, oral daily dose 10 mg/kg, read-out: AUC dose 4): 2.62 ± 1.03 µM·h; AUC ([1]; 30 mg/kg, oral daily dose 30 mg/kg, read-out: AUC dose 1): 7.04 ± 1.53 µM·h; AUC ([1]; 30 mg/kg, oral daily dose 30 mg/kg, read-out: AUC dose 4): 5.17 ± 1.22 µM·h; day by which mice were cleared of parasitemia ([2]; WM382 3 mpk oral q.d. 4 days from day 3): ≤ 7 days; day by which mice were cleared of parasitemia ([2]; WM382 10 mpk oral q.d. 4 days from day 3): ≤ 7 days; day by which mice were cleared of parasitemia ([2]; WM382 30 mpk oral q.d. 4 days from day 3): ≤ 6 days; efficacy against P. falciparum including parasitemia clearance rate, compared with chloroquine ([2]; in vivo and in vitro): at least equivalent to chloroquine; delay to patency [3, 5]: > 4 days; sterile protection against blood infection [3, 5]: 50%; sterile protection against blood infection ([3]; i.v. sporozoites, 2 × 100 mpk oral): 100%; killing of liver stages and liver egress by 55 hpi [3, 6]: did not kill P. berghei liver stages or markedly prevent liver egress in vivo; parasite liver infection at 52 hpi [3, 6]: no effect; delay to patency [3, 7]: 2 days; protection from blood infection [3, 7]: all mice developed blood infection; delay to patency [3, 8]: 5 days; sterile protection [3, 8]: 80%; protection from patent infection ([3]; mosquito bite infection, single dose 100 mpk at 36 hpi): protect all mice from developing patent infection; protection from blood infection, prophylactic treatment ([3]; single dose 50 mpk 4 h before mosquito bite infection): did not confer any protection; day post-infection from which parasites were detected ([4]; WM382 1 mpk oral b.i.d. 4 days): 2 days; day post-infection after which parasites were detectable ([4]; WM382 3 mpk oral b.i.d. 4 days): > 12 days; outcome to day 30 post-infection ([4]; WM382 3 mpk oral b.i.d. 4 days, n = 4): one mouse remaining parasite-free on day 30 pi; outcome to day 30 post-infection ([4]; WM382 10 mpk oral b.i.d. 4 days): remained parasite-free; outcome to day 30 post-infection ([4]; WM382 30 mpk oral b.i.d. 4 days): remained parasite-free; outcome to day 30 post-infection ([4]; WM382 oral q.d. 60, 30 or 10 mpk/day, 4 days): cured all mice
